Values quoted from earlier work, collected in patent publication US20070212307A1, “Pharmaceutical Compositions Comprising an Opioid Receptor Antagonist and Methods of Using Same” (priority 2006, published 2007).

Settings: 50 mg oral dose

Which oral bioavailability does the source give for `O=C1CC[C@@]2(O)[C@H]3Cc4ccc(O)c5c4[C@@]2(CCN3CC2CC2)[C@H]1O5` [naltrexone] here?
The oral bioavailability was 10%-25%.
